Measured values from patent US7910723B2, “IG20 splice variants therapeutics for cancer” (The Board of Trustees of the University of Illinois, priority 2006, dated 2011).

How the values were obtained:
Type in all cases: cell-based
14-3-3 [1] = experiment: Association of wtMADD with 14-3-3 in HEK293 cells (immunoprecipitation); details: LY 10 μM 1 h
Experimental: (§1) (A) Cellular distributions of wtMADD and MADD3A. HEK293 cells were transfected with wtMADD or MADD3A. 36 h after transfection, the cells were harvested and membrane andcytosolic fractions were prepared. Immunoblotting was performed using an anti-YFP antibody. Actin and caveolin-1 were used as loading controls. (B) […]. HEK293 cells were transfected with wtMADD or MADD3A. 36 h after transfection, the cells were harvested for immunoprecipitation using an anti-14-3-3 antibody followed by immunoblotting using an anti-YFP antibody for detecting exogenous MADD. The membrane was reprobed with an anti-14-3-3 antibody to show protein loading. (C) Inhibition of PI3K can lead to the association of wtMADD with 14-3-3. HEK293 cells were transfected with wtMADD. Cells were serum starved for 20 h and treated with LY (10 μM) for 1 h. Immunoprecipitation was performed using an anti-14-3-3 antibody, followed by immunoblotting using an anti-YFP or an anti-14-3-3 antibody. (D) Inhibition of Akt can result in the association of wtMADD with 14-3-3. HEK293 cells were co-transfected with wtMADD along with DN-Akt or pcDNA. […]
(§2) To explore the molecular mechanism by which nonphosphorylated MADD can trigger apoptosis, the cellular localization of phosphorylated and nonphosphorylated MADD was determined. […]
(§3) Immunoprecipitation. […] Immunoblots were prepared and analysed as described above.

14-3-3 [2] = experiment: Association of endogenous MADD with 14-3-3 in HeLa cells (immunoprecipitation); details: LY 10 μM 1 h
Experimental: as §1, §2, §3

IG20-SVs = experiment: Screening of shRNAs: knock-down of exogenous IG20-SV-YFP expression in 293T cells (flow cytometry)
Experimental: In order to determine which of the IG20-SVs contribute to apoptosis and cell proliferation, siRNA (small inhibitory RNA) approach was used to selectively knockdown IG20-SVs (Table 1). The siRNAs were cloned into the pSUPER vector to allow for expression of shRNAs (small hairpin RNAs). 293T cells were co-transfected with YFPIG20pa, YFP-MADD or YFP-DENN-SV along with different shRNA-expressing pSUPER vectors at ratios of 1:1, 1:3 and 1:7. Knock-down of protein expression was assessed by a reduction in YFP expression using flow cytometry. Several shRNAs were screened. Knock-down of expression of exogenous IG20-SVs were analyzed. 293T cells were plated onto 12-well plates and cotransfected with the indicated IG20-SV-YFP and pSUPER-shRNA constructs. YFP expression was represented as Mean Fluorescence Intensity. Specificity of Mid-shRNA was analyzed. The inability of Mid-shRNA to suppress the expression of mutant-IG20pa, -MADD, and -DENN-SV constructs was analyzed. […] Vector alone or a control shRNA had little or no effect on the expression of IG20-SVs. The sequences provided in Table 1 are exemplary and other sequences that specifically target MADD or any other isoform can be designed by those of skill in the art based on the information given in Table 1 and the disclosure in general.
To further confirm specificity of Mid-shRNA, silent mutations were created in cDNAs encoding IG20-SVs at sites corresponding to the 5th, 7th, 11th and 14th nucleotides of the Mid-shRNA. These mutations neither affected the amino acid sequence nor protein expression. Mutant-IG20-SV constructs were cotransfected with the pSUPER-shRNA and assessed for their expression. […] FIG. 18 is a schematic illustration of the targets of some of the shRNAs used to knock-down specific IG20 splice variants (isoforms). FIG. 11 provides schematic illustration of screening for shRNAs (A) and lentivirus production that contain the shRNA expressing vectors (B). Fluorescence values were measured from cells transfected with the respective shRNAs (FIG. 12).
Screening of shRNAs. IG20-YFP constructs were co-transfected with different pSUPER-shRNA constructs in different ratios (1:1, 1:3, 1:7) into 293T cells using Calcium phosphate. 24 hours post-transduction, cells were trypsinized, collected and washed twice in cold PBS, and analyzed for YFP expression by flow cytometry using a FACS Calibur (Becton Dickinson, N.J.).

Compound | Binding of WtMADD to 14-3-3 (14-3-3 [1]) | Binding of endogenous MADD to 14-3-3 (14-3-3 [2]) | Effect on IG20-SVs devoid of the targeted exon (specificity) (IG20-SVs) | Knock-down of expression of exogenous IG20-SVs (YFP expression, Mean Fluorescence Intensity) (IG20-SVs; 293T cells cotransfected with IG20-SV-YFP and pSUPER-shRNA, ratios 1:1, 1:3, 1:7)
O=c1cc(N2CCOCC2)oc2c(-c3ccccc3)cccc12 [LY] | able to bind to 14-3-3 only in the presence of LY | could bind to 14-3-3 only in the presence, but not in the absence, of LY |  | 
13L-shRNA: shRNA targeting exon 13L (IG20, MADD), 5′ CGGCGAATCTATGACAATC-3′ (SEQ ID NO: 4) |  |  | little or no effect on IG20-SVs devoid of the targeted exon | down-modulated IG20pa/MADD, leaving the expression of IG20-SV2 and DENN-SV unaltered
